Test system: PROVE-IT patients
Assay: PROVE-IT (PROVE IT-TIMI 22) genetic study: high-dose atorvastatin vs standard-dose pravastatin, death or major cardiovascular events by KIF6 719Arg carrier status
Type: in vivo, human
Description: Patients were followed for 18 to 36 months, with an average follow-up of 24 months.
Of the 1,724 patients who met the criteria listed above, 1344 (78.0%) were male. […] This study was approved by institutional review boards of the Brigham and Women's Hospital and all participating centers.
KIF6 genotypes were determined using allele—specific real-time PCR as previously described. Cox proportional hazard models (Wald tests) were used to assess the effect of atorvastatin-treatment on incident CHD in the KIF6 719Arg carriers and noncarriers. Continuous variables tested were age, baseline LDL-C, and baseline HDL-C levels. Categorical variables tested were smoking (current versus non-current), hypertension, and baseline diabetes. All reported p values are two-sided.

CC(C)c1c(C(=O)Nc2ccccc2)c(-c2ccccc2)c(-c2ccc(F)cc2)n1CC[C@@H](O)C[C@@H](O)CC(=O)O [Atorvastatin, atorvastatin]
HR, Model 1 (CHD, atorvastatin vs pravastatin) (ArgArg + ArgTrp (carriers), adjusted for sex, age, smoking, hypertension, diabetes, LDL-C, HDL-C, antibiotic): 0.56
HR, Unadjusted (CHD, atorvastatin vs pravastatin) (ArgArg + ArgTrp, 80 mg atorvastatin per day vs 40 mg pravastatin per day (ref)): 0.57
On-trial CHD (ArgArg + ArgTrp, totals 509 (atorvastatin), 502 (pravastatin)): 76 Number of patients
HR, Model 1 (CHD, atorvastatin vs pravastatin) (TrpTrp (noncarriers), adjusted): 0.97
HR, Unadjusted (CHD, atorvastatin vs pravastatin) (TrpTrp (noncarriers), pravastatin = ref): 0.99
On-trial CHD (TrpTrp, totals 359 (atorvastatin), 352 (pravastatin)): 81 Number of patients
unadjusted hazard ratio at 30 days (carriers of the KIF6 719Arg allele, 30 days after randomization, atorvastatin vs pravastatin): 0.18
reduction of relative risk of coronary events (carriers, high-dose atorvastatin vs standard-dose pravastatin): 44%
benefit of intensive therapy compared with moderate therapy (noncarriers, at any time point): no significant benefit

From patent US8148070B2, “Genetic polymorphisms associated with coronary events and drug response, methods of detection and uses thereof” (Celera Corporation, priority 2007, dated 2012)
